US7923465B2, “Cannabinoid receptor ligands, pharmaceutical compositions containing them, and process for their preparation” (priority 2005, dated 2011)
Where two headings read alike, the source gives them in different places.

Experiments:
hCB1 [1] = biological target: T1, hCB1 (Homo sapiens, UniProt P21554); experiment: Agonism of CB1 receptors expressed in CHO cells, forskolin cAMP assay (Protocol IX.2); assay type: cell-based; parameters: expressed in transfected cells; host or cells: CHO (h-CB1/CHO, G418-selected)
T1 sequence (P21554 whole entry): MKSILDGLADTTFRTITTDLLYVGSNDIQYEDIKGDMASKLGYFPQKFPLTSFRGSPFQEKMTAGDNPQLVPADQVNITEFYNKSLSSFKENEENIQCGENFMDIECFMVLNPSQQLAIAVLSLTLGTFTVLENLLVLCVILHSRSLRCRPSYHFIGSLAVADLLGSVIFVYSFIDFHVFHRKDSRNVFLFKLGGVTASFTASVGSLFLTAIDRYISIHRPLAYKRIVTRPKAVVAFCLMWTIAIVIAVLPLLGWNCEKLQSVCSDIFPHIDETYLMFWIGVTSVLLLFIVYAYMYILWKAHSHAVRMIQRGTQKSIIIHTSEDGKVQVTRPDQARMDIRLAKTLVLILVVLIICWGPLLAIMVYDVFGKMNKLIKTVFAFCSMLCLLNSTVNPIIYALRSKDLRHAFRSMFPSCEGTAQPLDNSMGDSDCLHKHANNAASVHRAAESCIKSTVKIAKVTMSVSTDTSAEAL
Protocol: IX. Assay for Determining Agonist and Antagonist Activity to CB1 and CB2 Receptors
2. Agonism of CB1/CB2 Receptors Expressed in CHO Cells
h-CB1/CHO or h-CB2/CHO cells were grown in HAM's F12 DMEM medium (Sigma) with 10% FBS (Hyclone), 1% penicillin-streptomycin solution and 400 μg/ml of G418 (Sigma). 5000 cells were seeded per well in a 96 well plate and incubated for 24 hours at 37° C. in 5% CO2. On the day of assay, cells were washed with warm Krebs Buffer containing 0.1% fatty acid free (FAF) BSA (Sigma) and re-suspended in the same buffer containing 1 mM IBMX. […] At the end of incubation, cells were lysed using lysis reagent from the cAMP estimation kit and cAMP was quantitated by chemiluminescence method described in the manufacturer's instructions (DiscoveRX). EC50 values were calculated from dose response curves by nonlinear regression analysis using PRISM software.

CB1 [2] = biological target: T2, CB1 (Rattus norvegicus, UniProt P20272); experiment: GTPγS binding assay, CB1 functional assay in rat cerebellar membrane (Protocol VIII); assay type: biochemical; parameters: 10 μg rat cerebellum membrane; from tissue; host or cells: rat cerebellum membrane, prepared in-house; details: for activation at 0.3 µM: 1 h, GTPγS binding over basal, rat cerebellar membrane, tested at 300 nM, read-out: Per Se % Stimulation; for inhibition at 0.3 µM: GTPγS binding, tested at 300 nM in presence of 1 μM WIN 55,212-2, read-out: % Inhibition of WIN-55212-2 induced stimulation
T2 sequence (P20272 whole entry): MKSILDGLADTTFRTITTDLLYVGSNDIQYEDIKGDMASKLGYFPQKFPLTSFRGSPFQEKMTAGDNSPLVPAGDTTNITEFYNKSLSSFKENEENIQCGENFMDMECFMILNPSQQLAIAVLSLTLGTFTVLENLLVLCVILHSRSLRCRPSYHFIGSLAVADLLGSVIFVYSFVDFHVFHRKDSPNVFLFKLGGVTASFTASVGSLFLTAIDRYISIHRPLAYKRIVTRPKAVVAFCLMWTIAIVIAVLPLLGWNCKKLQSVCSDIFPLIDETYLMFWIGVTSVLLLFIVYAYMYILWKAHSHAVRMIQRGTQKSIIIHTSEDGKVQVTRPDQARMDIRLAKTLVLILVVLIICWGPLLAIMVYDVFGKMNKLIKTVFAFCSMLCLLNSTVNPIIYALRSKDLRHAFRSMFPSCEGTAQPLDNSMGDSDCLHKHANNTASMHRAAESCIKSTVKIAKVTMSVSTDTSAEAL
In short: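 Rat cerebellar membranes (10 μg) incubated 1 h at 30 °C with 0.2 nM [35S]GTPγS, 50 μM GDP, and compound at 1 μM or 300 nM, alone or with 1 μM WIN 55,212-2, in Tris/MgCl2/EGTA/NaCl pH 7.4. Filter-bound radioactivity counted; percent stimulation calculated against basal specific binding (nonspecific defined by 10 μM GTPγS).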

CB2 receptor = experiment: Rat CB2 receptor binding using spleen membrane, [3H]CP55,940 displacement (Protocol III)
Protocol: III. In Vitro Protocol for Rat CB2 Receptor Binding Using Spleen Membrane
In this assay, [^3H]CP55,940 was used to bind the CB2 receptor present in a rat spleen membrane preparation which can be displaced by unlabeled ligands having affinity to the CB2 receptor.
The assay was performed according to the modified method of Rinaldi-Carmona et al., 1998 (JPET 284: 644-650). The total reaction mixture ([…]) contained Tris-BSA buffer (50 mM Tris, pH 7.4 with 1.5% BSA) or unlabeled SR144528 (N-[(1S)-endo-1,3,3-trimethyl bicyclo[2.2.1]heptan-2-yl]-5-(4-chloro-3-methylphenyl)-1-(4-methyl-benzyl)-pyrazole-3-carboxamide]) ([…]) or test samples (300 nM), [^3H]CP55,940 (1 nM) and […] of rat […] membrane. The non-specific binding was defined by […] of SR144528. The assay mixture was incubated at 37° C. for 1 hour. The reaction was then stopped by rapid filtration under vacuum using a Whatman GF/B-96 micro filter plate. A scintillation cocktail was added and radioactive counts were measured using a Topcount beta scintillation counter.
The standard and test sample dilutions were made in an assay buffer containing either ethanol or DMSO at a final concentration of 1%.
The percent (%) displacement by a test ligand was calculated by comparing the specific bound values.

hCB1 [3] = biological target: T1, hCB1; experiment: Antagonism of CB1 receptors expressed in CHO cells, cAMP assay against CP 55,940 (Protocol IX.1); assay type: cell-based; parameters: expressed in transfected cells; host or cells: CHO (h-CB1/CHO, G418-selected); details: for inhibition at 10 µM: read-out: hCB1 Antagonism
CB1 [4] = biological target: T2, CB1; experiment: Rat CB1 receptor binding using brain membrane, [3H]SR141716A displacement (Protocol I); parameters: CB1 receptor present in a rat brain membrane preparation; from tissue; host or cells: rat brain membrane; inhibition: dose or concentration left out as unconfirmed; details: 1 h
hCB2 [5] = biological target: T3, hCB2 (Homo sapiens, UniProt P34972); experiment: Agonism of CB2 receptors expressed in CHO cells, forskolin cAMP assay (Protocol IX.2); assay type: cell-based; parameters: expressed in transfected cells; host or cells: CHO (h-CB2/CHO, G418-selected); details: cAMP
T3 sequence (P34972 whole entry): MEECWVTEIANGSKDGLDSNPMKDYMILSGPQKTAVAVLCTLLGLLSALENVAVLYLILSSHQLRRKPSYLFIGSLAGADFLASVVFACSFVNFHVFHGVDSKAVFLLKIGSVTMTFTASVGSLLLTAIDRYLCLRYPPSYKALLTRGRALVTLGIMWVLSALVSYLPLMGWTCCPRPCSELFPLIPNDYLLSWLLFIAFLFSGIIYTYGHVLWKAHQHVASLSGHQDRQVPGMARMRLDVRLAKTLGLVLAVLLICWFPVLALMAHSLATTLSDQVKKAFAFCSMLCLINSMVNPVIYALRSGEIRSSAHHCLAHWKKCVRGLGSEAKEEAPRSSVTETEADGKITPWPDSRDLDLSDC
In short: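 CHO cells expressing h-CB2 were treated with compound in Krebs buffer with 0.1% FAF BSA and 1 mM IBMX, plus 10 uM forskolin, for 30 minutes at room temperature. cAMP in lysates was measured by chemiluminescence. EC50 was derived by nonlinear regression of dose–response curves, with CP 55,940 at 10 μM as reference for CB2.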

hCB2 [6] = biological target: T3, hCB2; experiment: In vitro binding assay using hCB2-CHO membranes, [3H]-CP-55,940 displacement (Protocol IV); parameters: expressed in transfected cells; host or cells: CHO (hCB2-CHO, generated in-house); details: hCB2-CHO membranes, [3H]-CP-55,940 displacement
In short: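 Displacement of [3H]-CP-55,940 (0.75 nM) from membranes of CHO cells expressing human CB2 (25-50 μg) was measured in Tris-BSA buffer pH 7.4 with 5 mM MgCl2, 1 mM EDTA, 0.1% BSA, 1 h at 30 °C. Test compounds were at 300 nM final; nonspecific binding defined with 0.5 μM CP-55,940. Values are % displacement of specific binding.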

hCB2 [7] = biological target: T3, hCB2; experiment: Antagonism of CB2 receptors expressed in CHO cells, cAMP assay against CP 55,940 (Protocol IX.1); assay type: cell-based; parameters: expressed in transfected cells; host or cells: CHO (h-CB2/CHO, G418-selected); details: h-CB2/CHO cells, vs 10 nM CP 55,940
In short: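 h-CB2/CHO cells in Krebs buffer with 0.1% FAF-BSA and 1 mM IBMX were pre-incubated 10 min with antagonist, then stimulated 30 min at room temperature with 10 nM CP 55,940 plus 10 μM forskolin. cAMP quantified by chemiluminescence; values from nonlinear regression of dose–response curves.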

neuropathic hyperalgesia = experiment: Neuropathic hyperalgesia model, partial sciatic nerve ligation (Seltzer's model, Protocol V); assay type: in vivo; details: rat, 1 mg/kg I.P., paw pressure, 0.5 and 1 hour postdose
Protocol: V. Neuropathic Hyperalgesia Model—Partial Sciatic Nerve Ligation (Seltzer's Model)
This protocol was performed with the compound of Example 294 at 0.01, 0.1, 0.3, and 1 mg/kg (I.P.), and gabapentin at 100 mg/kg (I.P.) to evaluate the ability of the compound of Example 294 in reducing neuropathic hyperalgesia. The Seltzer method is also generally described in Seltzer et al., Pain 1990, 43:205-18. • 1. Rats were anesthetised using ketamine/xylazine (40/5 mg/kg/ml, i.p.). After induction of anaesthesia, the left thigh was shaved and cleaned. • 2. The left sciatic nerve was exposed at mid thigh level through a small incision. • 3. The nerve was cleared from adhering muscle tissue. • 4. One half of the nerve thickness was tightly ligated just after the bifurcation of common sciatic nerve using 7.0 silk sutures. • 5. The wound was closed with muscle and skin sutures and povidone was applied. • 6. […] Paw withdrawal thresholds were recorded for both the ipsilateral and the contralateral hind paws before (predose) and 0.5 and 1 hour after drug or vehicle administration (postdose). • 9. […]
The threshold withdrawal latency (naïve, predose & postdose) values are represented as mean±SEM. […] The percent reversal of neuropathic mechanical hyperalgesia was calculated from withdrawal threshold latency values according to the following formula: […]

hCB1 [8] = biological target: T1, hCB1; experiment: In vitro binding assay using hCB1-CHO membranes, [3H]-CP-55,940 displacement (Protocol II); parameters: expressed in transfected cells; host or cells: CHO (hCB1-CHO, generated in-house)
In short: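 Incubated 1 h at 37° C, stopped by rapid vacuum filtration on PEI-precoated GF/B filters, bound radioactivity counted by liquid scintillation.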

voluntary ethanol intake [9] = details: mice; cited from earlier work
voluntary ethanol intake [10] = details: rats; cited from earlier work
[11] = at 10 uM, h-CB1/CHO cells, cAMP, vs 30 nM CP 55,940

Q: What does the source list for `C[C@H](NC(=O)c1nn(-c2ccc(Cl)cc2)c2c1C1CC3CC(C1)CC2C3)c1ccccc1` [Example 117]?
A: IC50 (hCB1 [1]): 18.9 nM; activation at 0.3 µM (CB1 [2]): 4.4%; inhibition at 0.3 µM (CB1 [2]): 55.7%; melting point: 85 to 86 °C; % Displacement Protocol III (CB2 receptor): 59.8%

Q: What does the source list for `CC(C)(NC(=O)c1nn(-c2ccc(Cl)cc2)c2c1C1CC3CC(C1)CC2C3)c1ccccc1` [Example 119]?
A: IC50 (hCB1 [1]): 38.3 nM; activation at 0.3 µM (CB1 [2]): 46%; inhibition at 0.3 µM (CB1 [2]): 38.9%; inhibition at 10 µM (hCB1 [3]; CHO): 18.4%; melting point: 181 °C; % Displacement Protocol III (CB2 receptor): 85.2%

Q: Which results are given for `O=C(NCc1ccccc1)c1n[nH]c2c1C1CC3CC(CC2C3)C1` [Example 186, N(7)-Benzyl-5,6-diazatetracyclo[7.3.1.1^3,11.0^4,8]tetradeca-4(8)-6-diene-7-carboxamide]?
A: inhibition (CB1 [4]; rat brain membrane, [3H]SR141716A displacement, read-out: % Displacement Protocol I): 17.2%; activation at 10 µM (hCB1 [1]; CHO, at 10 uM, h-CB1/CHO cells, cAMP): 29.4%; IC50 (hCB2 [5]; hCB2 Agonism IC50, h-CB2/CHO cells): 8.51 nM; inhibition at 10 µM (hCB1 [3]; [11]): 0%; inhibition at 0.3 µM (hCB2 [6]; 1 h, read-out: % Displacement Protocol IV): 59.1%; inhibition at 10 µM (hCB2 [7]; CHO): 21%

Q: Which inhibition (CB1 [4]; read-out: % Displacement Protocol I, rat brain membrane, [3H]SR141716A displacement) does the source give for `CC(C)(NC(=O)c1nn(-c2ccc(F)cc2F)c2c1C1CCC2C1)c1ccccc1` (stereo not drawn) [Example 294, N(3)-(1-Methyl-1-phenylethyl)-1-(2,4-difluorophenyl)-4,5,6,7-tetrahydro-1H-4,7-methano-indazole-3-carboxamide] here?
A: 111%

Q: What about the “reversal of neuropathic hyperalgesia” value (neuropathic hyperalgesia) of the same molecule?
A: significantly reversed neuropathic hyperalgesia

Q: And the activation at 0.3 µM (CB1 [2])?
A: 103%

Q: What about the inhibition at 0.3 µM (CB1 [2]) of the same molecule?
A: 9.8%

Q: What about the melting point of the same molecule?
A: 105 °C

Q: For `O=C(NCC1CCOCC1)c1nn(-c2ccc(F)cc2F)c2c1C1CCC2C1` (stereo not drawn) [Example 316, N(3)-(Tetrahydro-2H-4-pyranmethyl)-1-(2,4-difluorophenyl)-4,5,6,7-tetrahydro-1H-4,7-methano-indazole-3-carboxamide], which “hCB1 Agonism” value (hCB1 [1]; at 10 uM, h-CB1/CHO cells, cAMP) is on record?
A: 18.53% at

Q: What about the IC50 (hCB2 [5]; h-CB2/CHO cells, read-out: hCB2 Agonism IC50) of the same molecule?
A: 1.2 to 4.27 nM

Q: What about the “hCB1 Antagonism” value (hCB1 [3]; [11]) of the same molecule?
A: 2% at 10 uM

Q: What about the “% Displacement Protocol IV” value (hCB2 [6]) of the same molecule?
A: 66.65%

Q: And the “% Displacement Protocol II” value (hCB1 [8])?
A: 13.83%

Q: What about the “hCB2 Antagonism” value (hCB2 [7]; at 10 uM) of the same molecule?
A: 37.63% at

Q: What does the source list for `Cc1c(C(=O)NN2CCCCC2)nn(-c2ccc(Cl)cc2Cl)c1-c1ccc(Cl)cc1` [SR-141716A, 5-(4-chlorophenyl)-1-(2,4-dichlorophenyl)-4-methyl-N-(1-piperidyl)pyrazole-3-carboxamide]?
A: voluntary ethanol intake (voluntary ethanol intake [9]): block voluntary ethanol intake; voluntary ethanol intake (voluntary ethanol intake [10]): block voluntary ethanol intake
